Tested on: Wistar rats
Assay: Rotenone-induced PD: severe catalepsy on inclined grid
Assay type: in vivo, rat
Details: for Severe catalepsy (% of group): 45 min before rotenone 2.3 mg/kg, immobilization on inclined grid above 40 seconds; for Severe catalepsy, Day 19: control 58, doses as E38; for Severe catalepsy, Day 12: oral daily 19 days, 45 min before rotenone 2.3 mg/kg IP, levodopa given with benserazide 4:1, control 42, rat dose mg/kg by row (L levodopa, P phenylephrine, M memantine): r12 M2.5, r13 M5, r14 P0.3, r15 L10, r16 L20, r17 L5+P0.3+M1, r18 L10+P0.3+M1
From the text: Rotenone is a specific inhibitor of mitochondrial complex 1, which causes oxidative stress and apoptotic death of dopaminergic and cholinergic neurons in the striatum, substantia nigra and cerebellum. Damage to these neurons causes a decrease in dopamine and acetylcholine levels in the striatum, extrapyramidal disorders (catalepsy, impaired coordination of movements) and oligokinesia typical for PD, as well as ataxia, limb dystonia and mortality characteristic of PSP. Rotenone is used to create a model of PD and PSP in Wistar rats by intraperitoneal introduction of rotenone in a toxic dose of 2.3 mg/kg (Jason R. Cannon et al., Neurobiology of Disease, 2009, Vol. 34, pages 279-290).
Rotenone was dissolved in mixture of DMSO and Miglyol 812N at a ratio of 2:98 at concentration of 2.3 mg/ml. Preparation: 230 mg sample of rotenone in vials was dissolved in 2 ml of DMSO. The solution was poured into a jar with 100 ml. Vials are rinsed twice with 5 ml of Miglyol, washings attached to the main solution and stirred. To this solution was added 88 ml of Miglyol and mixed again. The resulting solution was divided into 3 doses. The solution was stored at −10° C. Each animal was administered 0.2 ml of a solution of rotenone: a dose of 0.46 mg per animal weighing 200±20 g, i.e. 2.3 mg/kg. The solution of rotenone was injected IP one time a day for 19 days.
Anti-parkinsonian effect of therapy in rats with rotenone-induced PD was estimated according to elimination of extrapyramidal disorders (catalepsy) and oligokinesia (rapid decreased amplitude and velocity of repeated movements) in the “open field” test. The neuro-protective effect of therapy was evaluated by the elimination of ataxia limb dystonia and mortality in rats with rotenone-induced PSP. Hyperkinetic side action (hyper-locomotion) was evaluated by increased horizontal and vertical activity in the open field at the 10th and 18th day of the experiment, calculated in % compared to the first day of the experiment.
The number of animals in the control and experimental groups ranged from 6 to 8.
Levodopa was administered in combination with benserazide (peripheral dopa-decarboxylase inhibitor) at a ratio of 4:1 to reduce the side effects of levodopa, associated with the stimulation of peripheral dopamine receptors (Alam M. et al., Behav. Brain Res., 2004, Vol. 153 (2), pages 439-446). Levodopa with benserazide were dissolved in 1 ml of DW and administered orally in the volume of 1 ml. […] The mixture was administered orally in a volume of 1 ml. Anti-parkinsonian effect in the experimental groups of rats with rotenone has been evaluated by eliminating catalepsy and oligokinesia.
Catalepsy in rats is determined by the time of immobilization of the animal, placed on a large grid predisposed at an angle of 45°. Maximum catalepsy in rats is recorded in the case of their complete immobilization on grid at 120 seconds for observation. The value of catalepsy is evaluated in points: 3 points—immobilization duration from 80 seconds to 120, 2 points—immobilization duration from 40 to 70, 1 point—immobilization duration from 20 to 35, 0 points—the immobilization of less than 20 seconds. Catalepsy was followed in rats daily, 30 minutes before administration of rotenone and 180 minutes after administration of rotenone. For each experimental group, on a daily basis, throughout the period of observation number of rats with severe catalepsy (2-3 points) was determined in % of the total number of rats in group. To assess the anti-cataleptic effects of therapy, on 12th and 19th day of experiment, reduction in the number of rats with severe catalepsy (2-3 points) in % was determined compared to control treated with distilled water.
Anti-parkinsonian effect of therapy in rats with rotenone-induced parkinsonism was estimated according to elimination of extrapyramidal disorders (catalepsy) and oligokinesia in the “open field” test. […]

Row | Compound | Severe catalepsy (% of group) (Day 12, levodopa 10 mg/kg oral) | Severe catalepsy (% of group) (Day 12, levodopa 20 mg/kg oral) | Severe catalepsy (% of group) (Day 19, levodopa 10 mg/kg oral) | Severe catalepsy (% of group) (Day 19, levodopa 20 mg/kg oral) | Severe catalepsy, Day 19 (levodopa 10 mg/kg) | Severe catalepsy, Day 19 (levodopa 20 mg/kg) | Severe catalepsy (% of group) (Day 12, memantine 5 mg/kg oral) | Severe catalepsy (% of group) (Day 12, memantine […] oral) | Severe catalepsy (% of group) (Day 19, memantine 5 mg/kg oral) | Severe catalepsy (% of group) (Day 19, memantine […] oral) | Severe catalepsy, Day 12 (memantine 2.5 mg/kg) | Severe catalepsy, Day 12 (memantine 5 mg/kg)
1 | N[C@@H](Cc1ccc(O)c(O)c1)C(=O)O [Levodopa, L-3,4-dihydroxyphenylalanine] | 28 % of group | 12 % of group | 42 % of group | 24 % of group | 42 % of group | 24 % of group |  |  |  |  |  | 
2 | CC12CC3CC(C)(C1)CC(N)(C3)C2 [Memantine, memantine] |  |  |  |  |  |  | 17 % of group | 33 % of group | 17 % of group | 50 % of group | 33 % of group | 17 % of group

Reference: US20200188388A1, “METHODS AND COMPOSITIONS FOR PO[…] DRUGS AND REDUCING THEIR SIDE EFFECTS” (RVX THERAPEUTICS LTD., priority 2016, published 2020)
